The subject of data set [1] is human liver carcinoma HepG2 cell line. The data set can be described thus: MTT cytotoxicity assay on liver cancer cells. The format is cell-based. To be noted: 24 h treatment. On the procedure: Toward this, the HepG-2 cells were cultured and treated with tested compounds at different concentrations for 24 h and subsequently 3-(4,5-dimethylthiazol-2-yl)-2,5-diphenyltetrazolium bromide (MTT) dye was added. The colorimetric measurement was assessed using an ELISA plate reader at a wavelength of 570 nm.
Following this initial incubation period, the cells were exposed to varying concentrations of the synthesized compounds. The concentrations may have ranged from a lower to higher dose, depending on the experimental design. The molecules were dissolved in an appropriate solvent, DMSO, to obtain the desired concentrations. Control wells with no drug treatment were also included. […] The duration of the incubation may have varied depending on the specific experimental requirements. At the end of the 24-h treatment, (3-(4,5-dimethylthiazol-2-yl)-2,5-diphenyltetrazolium bromide) MTT dye was added to each well. MTT is a yellow tetrazolium salt that is utilized by metabolically active cells and converted into purple formazan crystals by mitochondrial enzymes in viable cells. […] DMSO is a common solvent used to dissolve the formazan crystals and extract the intracellular purple product. The plate was then subjected to colorimetric measurement using an ELISA plate reader at a wavelength of 570 nm. The intensity of the purple color is proportional to the number of viable cells and reflects the growth condition of the cells in each well. The results were analyzed by calculating the percentage of cell viability or cell growth inhibition compared to the control wells. […] The experiments were performed with at least three replicates for each concentration, and the entire experiment was repeated at least three times to ensure the reliability of the results.
A general note: Tetrazolium assays rely on reduction of a dye to a coloured formazan, in cell work by metabolically active cells.

Data set [2] relates to HepG-2 cells. The data set can be described thus: Annexin V-FITC/PI apoptosis assay. The format is cell-based, human. On the procedure:
The Annexin V-FITC/PI assay is a well-established flow cytometric method to evaluate the apoptotic potential of bioactive compounds. The assay allows differentiation between apoptotic cells and live cells by using fluorescent dyes that bind to phosphatidylserine (PS) and DNA, respectively ([Galluzzi et al., 2018]; [Pfeffer and Singh, 2018]; [Tong et al., 2022]). In the present study, the assay was performed to explore the apoptotic effect of compound 7 (at its IC50 dose value) on HepG-2 cells. […] The Annexin V-FITC/PI assay is a well-established method to evaluate the apoptotic potential of chemical compounds. Inducing apoptosis is an appealing therapeutic approach for cancer treatment as it is a vital cellular process essential for preserving tissue balance and removing impaired or unnecessary cells. Disruption in the regulation of apoptosis can contribute to various diseases, such as cancer, highlighting its significance. […] The early stage of apoptosis is characterized by the translocation of PS from the inner to the outer leaflet of the plasma membrane, which can be detected by Annexin V-FITC staining. […] Further, the late stage of apoptosis is characterized by DNA fragmentation, which can be detected by PI staining. […] According to these findings, there is a notable connection between the ability of compound 7 to induce programmed cell death in HepG-2 cells and its antiproliferative effects.
The experimental method involved seeding HepG-2 cells at a density of 1.5 × 10^5 cells per well in a 6-well plate and incubating the cells for 12 h to allow for cell attachment and growth. Following this, the cells were treated with compound 7 at its IC50 concentration for 24 h to induce apoptosis. Apoptosis, a programmed cell death process, was detected by staining the cells with Annexin-V conjugated to fluorescein isothiocyanate (FITC) and Propidium Iodide (PI), and the stained cells were analyzed using a FACSCalibur cytometer and Cellquest software (BD Bioscience). Annexin-V is a protein that binds specifically to phosphatidylserine, a phospholipid that is externalized on the outer surface of the plasma membrane during early stages of apoptosis. FITC, a green-fluorescent dye conjugated to Annexin-V, is used to label the apoptotic cells. PI, a red-fluorescent DNA intercalating agent, is used to distinguish between apoptotic and necrotic cells based on their DNA content. The FACSCalibur cytometer is a flow cytometer used to analyze and quantify fluorescently labeled cells. The experimental method likely allowed for the quantification of apoptotic cells by analyzing the Annexin-V-FITC and PI staining patterns using flow cytometry. The results obtained from this method provided information on the induction of apoptosis by compound 7 in HepG-2 cells, further elucidating the mechanism of action of this compound as a potential anticancer agent. To ensure the reliability of the results, the experimental conditions were repeated at least three times, and the cells were exposed to therapeutically effective concentration of the compound, they were treated with compound 7 at a dose corresponding to its IC50 concentration. This ensured that the cells were subjected to an optimal concentration of the compound during the experiment. This experimental method yielded crucial information on the mechanism by which it exerts its anticancer effects.

A further data set concerns the target T1, VEGFR-2 (Homo sapiens, UniProt P35968).
T1 construct: ability to target the VEGFR-2 receptor inHep-G2 cells; endogenous in cells; host or cells: Hep-G2
The data set is described as follows: VEGFR-2 ELISA assay. The format is cell-based. Here is the method:
A 96-well plate was used for the assay, and each well was filled with a specific volume of the tested molecules and standard concentrations. The wells were coated with an immobilized antibody that specifically binds to VEGFR-2. After incubation, the wells were washed to remove unbound molecules, and biotinylated anti-human VEGFR-2 antibody was added to the wells. This biotinylated antibody specifically binds to VEGFR-2 that is captured by the immobilized antibody. Following another round of washing, a solution of conjugated streptavidin, which binds to the biotinylated antibody, was added to the wells. […] During this incubation, the bound conjugated streptavidin transformed the substrate into a colorful product. After terminating the reaction with an inhibitor solution, the optical density of the produced color was instantly determined at 450 nm with a spectrophotometer.

In another data set the test system is HL-7702 normal cell line. The data set can be described thus: MTT cytotoxicity assay on normal liver cells. In kind it is cell-based. To be noted: Homo sapiens, L02, 24 h treatment. Here is the method: Following this initial incubation period, the cells were exposed to varying concentrations of the synthesized compounds. The concentrations may have ranged from a lower to higher dose, depending on the experimental design. The molecules were dissolved in an appropriate solvent, DMSO, to obtain the desired concentrations. Control wells with no drug treatment were also included. […] The duration of the incubation may have varied depending on the specific experimental requirements. At the end of the 24-h treatment, (3-(4,5-dimethylthiazol-2-yl)-2,5-diphenyltetrazolium bromide) MTT dye was added to each well. MTT is a yellow tetrazolium salt that is utilized by metabolically active cells and converted into purple formazan crystals by mitochondrial enzymes in viable cells. […] DMSO is a common solvent used to dissolve the formazan crystals and extract the intracellular purple product. The plate was then subjected to colorimetric measurement using an ELISA plate reader at a wavelength of 570 nm. The intensity of the purple color is proportional to the number of viable cells and reflects the growth condition of the cells in each well. The results were analyzed by calculating the percentage of cell viability or cell growth inhibition compared to the control wells. […]

Data set [3] relates to HepG-2 cells. The data set is described as follows: Cell cycle analysis by DNA flow cytometry (PI staining). In kind it is cell-based, human. Particulars: HepG-2, compound at IC50 (0.75 µM), 24 h. Here is the method: Based on this promising activity, compound 7 was selected for further evaluation to assess its effect on the cell cycle profile in HepG-2 cells. To evaluate the cell cycle, a biparametric cytofluorimetric analysis was conducted on HepG-2 cells treated with compound 7 at its IC50 concentration for a duration of 24 h. Propidium iodide (PI) was used as the staining agent for this analysis. (Figure 5). […] Similarly, the percentage of cells in the G2/M phase decreased from 11.46% in the control group to 6.4% after treatment with compound 7. In contrast, there was a notable increase in the percentage of cells in the S phase after treatment with Compound 7. […] These findings indicate that the treatment of HepG-2 cells with compound 7 leads to cell cycle arrest specifically in the S phase. This is evident from the decrease in the proportion of cells in the G1 and G2/M phases, accompanied by an increase in the percentage of cells residing in the S phase. Cell cycle arrest is a widely recognized mechanism utilized by anticancer agents to impede the excessive proliferation of cancer cells. By inducing cell cycle arrest, these agents disrupt the normal progression of the cell cycle, preventing cancer cells from dividing and multiplying uncontrollably. This therapeutic strategy helps to halt tumor growth and promotes the effectiveness of cancer treatments. The observed effects of compound 7 on the cell cycle profile of HepG-2 cells are indicative of its potential as an antitumor agent. […] Furthermore, the increase in the percentage of cells in the S phase upon treatment with Compound 7 may indicate DNA damage and activation of DNA repair mechanisms, which can contribute to the observed S phase arrest.
HepG-2 cells were seeded in […] at a density of 3.0 × 10^5 cells per well and incubated at 37°C for 12 h to allow cell attachment and growth. After the initial incubation, the cells were treated with compound 7 at its IC50 concentration dose value for 24 h. […] Flow cytometry analysis measures the fluorescence emitted by the cells stained with PI, which correlates with the DNA content. […]
A general note: A flow cytometer gives signals particle by particle.

The next data set addresses CYP2D6 (Homo sapiens, UniProt P10635).
In data set [4] the test system is HepG-2 cells. Also on record: method as in Fayed et al., 2019. Particulars: ref Fayed et al., 2019; read-out: IC50, cytotoxic activity against HepG-2 cells; cited from earlier work.

Like-named read-outs stand apart in the source and are kept apart here.

What is called melting point is the temperature of the solid-liquid transition. Usually IC50 stands for the concentration at which inhibition is half-maximal.

Sequence of CYP2D6 (P10635 whole entry): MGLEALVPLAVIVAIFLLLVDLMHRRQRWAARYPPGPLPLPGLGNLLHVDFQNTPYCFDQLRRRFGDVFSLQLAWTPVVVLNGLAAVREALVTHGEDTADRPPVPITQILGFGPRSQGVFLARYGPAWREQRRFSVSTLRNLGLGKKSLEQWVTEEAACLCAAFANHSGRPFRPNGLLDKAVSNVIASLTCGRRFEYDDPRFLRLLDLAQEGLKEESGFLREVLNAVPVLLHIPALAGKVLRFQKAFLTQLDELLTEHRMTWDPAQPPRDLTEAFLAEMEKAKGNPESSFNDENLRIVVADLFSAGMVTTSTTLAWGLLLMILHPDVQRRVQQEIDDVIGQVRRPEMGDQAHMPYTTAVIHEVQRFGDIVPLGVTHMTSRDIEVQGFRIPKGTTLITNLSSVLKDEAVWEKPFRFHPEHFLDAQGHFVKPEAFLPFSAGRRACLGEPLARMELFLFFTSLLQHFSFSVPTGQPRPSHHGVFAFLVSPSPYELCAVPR
T1 sequence (P35968 20-1356): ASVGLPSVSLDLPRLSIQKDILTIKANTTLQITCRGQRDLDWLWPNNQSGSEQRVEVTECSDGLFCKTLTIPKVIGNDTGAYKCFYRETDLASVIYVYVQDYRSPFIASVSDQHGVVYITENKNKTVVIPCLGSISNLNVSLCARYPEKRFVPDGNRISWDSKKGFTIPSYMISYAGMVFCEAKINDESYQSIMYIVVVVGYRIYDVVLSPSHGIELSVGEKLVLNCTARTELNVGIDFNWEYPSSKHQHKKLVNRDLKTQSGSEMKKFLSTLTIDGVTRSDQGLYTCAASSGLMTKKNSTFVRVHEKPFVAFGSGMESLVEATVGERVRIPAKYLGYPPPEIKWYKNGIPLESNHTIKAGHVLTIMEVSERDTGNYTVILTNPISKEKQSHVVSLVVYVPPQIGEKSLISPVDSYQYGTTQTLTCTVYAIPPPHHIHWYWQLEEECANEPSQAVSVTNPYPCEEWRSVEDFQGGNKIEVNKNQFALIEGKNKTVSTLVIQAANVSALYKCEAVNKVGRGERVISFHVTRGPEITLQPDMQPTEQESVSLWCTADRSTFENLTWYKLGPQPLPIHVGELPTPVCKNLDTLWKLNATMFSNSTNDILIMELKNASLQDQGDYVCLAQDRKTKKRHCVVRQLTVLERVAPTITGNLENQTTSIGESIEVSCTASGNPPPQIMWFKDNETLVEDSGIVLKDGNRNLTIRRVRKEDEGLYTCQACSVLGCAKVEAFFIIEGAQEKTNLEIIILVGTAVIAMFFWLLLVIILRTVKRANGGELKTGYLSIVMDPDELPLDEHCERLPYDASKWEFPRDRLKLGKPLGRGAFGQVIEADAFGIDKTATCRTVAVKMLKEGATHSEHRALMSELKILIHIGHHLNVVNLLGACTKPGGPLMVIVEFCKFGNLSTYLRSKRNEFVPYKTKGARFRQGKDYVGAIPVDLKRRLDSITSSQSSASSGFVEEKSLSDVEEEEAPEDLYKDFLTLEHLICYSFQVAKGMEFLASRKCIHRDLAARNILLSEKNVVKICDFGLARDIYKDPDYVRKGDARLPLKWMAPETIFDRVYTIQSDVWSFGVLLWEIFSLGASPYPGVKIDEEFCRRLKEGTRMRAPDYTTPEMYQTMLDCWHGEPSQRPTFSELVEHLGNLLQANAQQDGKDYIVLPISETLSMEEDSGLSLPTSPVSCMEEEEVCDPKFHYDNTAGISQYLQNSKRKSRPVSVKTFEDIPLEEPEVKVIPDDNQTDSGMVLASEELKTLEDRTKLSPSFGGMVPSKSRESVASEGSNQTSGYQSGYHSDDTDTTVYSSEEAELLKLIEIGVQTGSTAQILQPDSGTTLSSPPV
Procedure for CYP2D6: Human cells, obtained from the American Type Culture Collection (ATCC), were cultivated in RPMI medium (Invitrogen/Life Technologies). The medium was supplemented with 1% penicillin-streptomycin, 10 μg/ml of insulin (Sigma), and to support cell growth and 10% Fetal Bovine Serum (FBS) (Hyclone) viability. […] Cells were seeded into a 96-well plate at a density of 1.2–1.8 × 10,000 cells/well in a volume of 100 μL of complete growth medium. […] Each concentration was tested in triplicate. A control well with only complete growth medium was included as a negative control. […] The culture media was quickly withdrawn, and the cultured cells were rinsed with PBS. […] After the incubation, the fluorescence intensity of the converted product was measured using a FLx800™ Fluorescence Microplate Reader at the excitation wavelength of 390 nm and the emission wavelength of 488 nm. […] The data were analyzed for statistical significance and presented as mean ± standard deviation (SD) from triplicate measurements.

In turn, `COc1cccc2cc(C(=O)Nc3cccc(O)c3)c(=O)oc12` [Compound 3, N-(3-hydroxy)-phenyl 8-methoxycoumarin-3-carboxamide] returned a melting point of 256 °C. The IC50 in data set [1] was determined as 3.81 ± 0.16 µM.
The compound `COc1ccc(Br)c2cc(C(=O)Nc3cccc(O)c3)c(=O)oc12` [Compound 4, N-(3-hydroxy)phenyl 5-bromo-8-methoxycoumarin-3-carboxamide] yielded a melting point of 289 °C. This compound also had an IC50 in data set [1] of 38.3 ± 1.62 µM.
`COc1ccc(Br)c2cc(C(=O)Nc3cccc(OC(C)=O)c3)c(=O)oc12` [Compound 6, N-(3-acetoxy)phenyl 5-bromo-8-methoxycoumarin-3-carboxamide] yielded a melting point of 205 °C. The compound also gave an IC50 in data set [1] of 13.4 ± 0.56 µM.
`COc1cccc2cc(C(=O)Nc3cccc(O)c3)c(=O)[nH]c12` [Compound 7, N-(3-hydroxy)phenyl 8-methoxy-azacoumarin-3-carboxamide]: in the data set with HepG-2 cells [2] (HepG-2, compound at IC50), the “fold increase of early apoptotic cells vs control” value was 45 fold, the “fold increase of late apoptotic cells vs control” value turned out to be 73 fold, the “fold increase of necrosis vs control” value came to 2.5 fold and the “fold increase of total apoptotic cells vs control” value is 23 fold. In addition, the “percentage of apoptotic cells, late stage” value with HepG-2 cells [2] (HepG-2, compound at IC50 (0.75 µM), 24 h, control 0.21%) turned out to be 15.34%. The “percentage of apoptotic cells, early stage” value in the data set on HepG-2 cells [2] (HepG-2, compound at IC50 (0.75 µM), 24 h, control 0.55%) is 24.72%. Moreover, the VEGFR2 protein level at VEGFR-2 (Hep-G2 cells, untreated 3,007 pg/mL) is reported as 1,086 pg/mL. Moreover, on VEGFR-2 (summary graph, read-out: Angiogensis inhibtion IC50 (Figure 10) (converted)), the IC50 was 110 µM. Besides, the IC50 with HL-7702 normal cell line worked out at 13.7 ± 1.8 µM. For the same compound, the “percentage of cells in the G2/M phase” value in the data set on HepG-2 cells [3] (untreated control 11.46%) is on record as 6.4%. Moreover, the “percentage of cells in the S phase” value with HepG-2 cells [3] (untreated control 42.19%) came out at 54.52%. Further, the “percentage of cells in the G1 phase” value in the data set on HepG-2 cells [3] (untreated control 46.35%) is 39.08%. Moreover, at CYP2D6, inhibition was half-maximal at 110 µM (IC50) and the “fold more potent than standard staurosporin toward CYP2D6” value is reported as 2.1 fold. The compound further had an IC50 in data set [1] of 0.75 ± 0.03 µM.
As to `COc1ccc(Br)c2cc(C(=O)Nc3cccc(O)c3)c(=O)[nH]c12` [Compound 8, N-(3-hydroxy)phenyl 5-bromo-8-methoxy-azacoumarin-3-carboxamide], the melting point came to 255 °C. Further, the midpoint of inhibition in data set [1], the IC50, lay at 4.79 ± 0.2 µM.
For the compound `COc1ccc(-c2cc(-c3cc4ccccc4oc3=O)nc(NC(C)=O)c2C#N)cc1` [Compound 11], in the data set with HepG-2 cells [4], the IC50 was 4.5 µM.
On CYP2D6 (human), `CN[C@@H]1C[C@H]2O[C@@](C)([C@@H]1OC)n1c3ccccc3c3c4c(c5c6ccccc6n2c5c31)C(=O)NC4` [STU, staurosporine, reference compound] showed an IC50 of 70.3 µg/mL.

Source of the values: paper PMC10436493, “Unveiling the antitumor potential of novel N-(substituted-phenyl)-8-methoxycoumarin-3-carboxamides as dual inhibitors of VEGFR2 kinase and cytochrome P450 for targeted treatment of hepatocellular carcinoma” (Frontiers in Chemistry, 2023).
